Measured values as given in patent publication US11690828B2, “Treatment of CNS diseases with sGC stimulators” (Cyclerion Therapeutics, Inc., priority 2016, dated 2023).

Tests used:
[1] = tested on: cGMP; assay: Compound-induced cGMP in mouse brain; format: in vivo
Description: Protocol. Mice (n=9-10 per experimental condition) were dosed P.O. with vehicle (1% hydroxypropyl methyl cellulose, 0.2% Tween80, 0.5% methyl cellulose), P.O. with 10 mg/Kg of Compound I-2. Thirty minutes after dosing, under isoflurane anesthesia, each mouse was decapitated and its brain was removed and was placed into an ice-cold petri dish containing slushy dissection solution (saturated with 95% O2·5% CO2). Using an ice-cold spatula, the brain was transferred to mouse brain matrix with coronal spacing for slicing at 1 mm intervals, as schematized in the FIGURE below (not to scale, just a scheme). • ?
The sliced brain was transferred back into petri dish containing slushy dissection solution with IBMX 0.5 mM (saturated with 95% O2·5% CO2). The dorsal striatum is dissected first, followed by the hippocampus second, followed by the medial prefrontal cortex third, and lastly, the cerebellum fourth. After each region was dissected the “chunk” of tissue was immediately placed into an eppendorf which had been placed on dry ice for the previous 30 minutes. Small pieces of tissue froze very fast, within 10 seconds approximately. After all regions were placed in an eppendorf, eppendorfs were snap frozen by immersion into liquid nitrogen. The tissue samples were stored at −80 C. cGMP levels in brain were determined by LC/MS. Brain samples were homogenized in an aqueous buffer consisting of 80:20 (V/V %) water:acetic acid using an ultrasonicator probe. Brain homogenates containing sGC compounds and or cGMP were extracted from brain tissue by protein precipitation with an organic solvent containing internal standards (IS) followed by filtration and phospholipid removal using a Phenomenex® Phree™ phospholipid removal plate. Samples were analyzed using liquid chromatography (LC) with tandem mass spectrometric detection (MS/MS) using electrospray ionization. The standard curve concentrations used for quantitation of cGMP and or sGC compound(s) ranged from 0.2 to 400 ng/mL. Protein quantification of brain samples was determined using BCA protein assay kit.

[2] = tested on: cGMP; assay: Dose-response compound-induced cGMP in mouse brain (cerebrum); format: in vivo; settings: 30 minutes after dosing
Description: Protocol. Experimental Day 1: Fast mice overnight with ad libitum access to water. Experimental Day 2: Mice (n=10 per experimental condition) were dosed P.O. with vehicle (1% hydroxypropyl methyl cellulose, 0.2% Tween80, 0.5% methyl cellulose), 3 or 10 mg/Kg of Compound I-2 prepared in vehicle. Thirty minutes after dosing, under isoflurane anesthesia, each mouse was decapitated and its brain was removed. The cerebrum was separated from each brain and placed in separate 15 ml falcon tubes and flash froze by immersion into liquid nitrogen. The tissue samples were stored at −80 C. cGMP levels in brain were determined by LC/MS. Brain samples were homogenized in an aqueous buffer consisting of 80:20 (V/V %) water:acetic acid using an ultrasonicator probe. Brain homogenates containing sGC compounds and or cGMP were extracted from brain tissue by protein precipitation with an organic solvent containing internal standards (IS) followed by filtration and phospholipid removal using a Phenomenex® Phree™ phospholipid removal plate. Samples were analyzed using liquid chromatography (LC) with tandem mass spectrometric detection (MS/MS) using electrospray ionization. The standard curve concentrations used for quantitation of cGMP and or sGC compound(s) ranged from 0.2 to 400 ng/mL. Protein quantification of brain samples was determined using BCA protein assay kit

[3] = tested on: R6/2 mice hippocampal slices; assay: Synaptic transmission and plasticity (LTP) in R6/2 mice hippocampal slices; format: cell-based, mouse
Description: Preparation of acute mice hippocampal slices. Experiments were carried out with 11 to 12 week-old R6/2 and WT mice provided by the Jackson Laboratory (USA). Hippocampal slices (350 μm thickness) were cut with a Macllwain tissue chopper in an ice-cold oxygenated sucrose solution (Saccharose 250, Glucose 11, NaHCO3 26, KCl 2, NaH2PO4 1.2, MgCl2 7, and CaCl2 0.5 in mM). The slices were incubated 1 hour at room temperature in ACSF of the following composition: Glucose 11, NaHCO3 25, NaCl 126, KCl 3.5, NaH2PO4 1.2, MgCl2 1.3, and CaCl2 2 in mM. Then, the slices were let to recover for at least 1 h.
Slice perfusion and temperature control. During the experiments, the slices were continuously perfused with the ACSF (bubbled with 95% O2-5% CO2) at the rate of 3 mL/min with a peristaltic pump (MEA chamber volume: ˜1 mL). Complete solution exchange in the MEA chamber was achieved 20 s after the switch of solutions. The perfusion liquid was continuously pre-heated at 37° C. just before reaching the MEA chamber with a heated-perfusion cannula (PH01, MultiChannel Systems, Reutlingen, Germany). The temperature of the MEA chamber was maintained at 37±0.1° C. with a heating element located in the MEA amplifier headstage.
Input/Output (I/O) curve: from 100 to 800 μA, by 100 μA steps. The stimulus intensity was then set to a fixed value of 250 μA for the short- and long-term synaptic plasticity measurements.
Short-term plasticity properties: two pulses with a decreasing inter-stimuli interval (e.g. 300 ms, 200 ms, 100 ms, 50 ms, 25 ms) were applied. Compound application: fEPSP were recorded for 10 minutes in control conditions (to verify the baseline steadiness) followed by a 15-minute exposure to the compound (or 25 minutes in the presence of vehicle only for control slices). A second I/O protocol and paired-pulse protocol were applied, as described previously, in the continuous presence of the compound.
Long-Term Potentiation (LTP): Following a 10-minute control period (in the presence of the compound or vehicle for control slices), LTP was induced by a 10×TBS. Potentiation of synaptic transmission was then monitored for an additional 60-minute period (in the continuous presence of the compound or vehicle for control slices).

[4] = 855 nM, R6/2 hippocampal slices

Structure (SMILES)	mPFC: nM cGMP/μg protein ([1]; mouse cortex, 10 mg/Kg P.O., 30 minutes after dosing, vehicle 0.075)	Hippocampus: nM cGMP/μg protein ([1]; mouse, 10 mg/Kg P.O., 30 minutes after dosing, vehicle 0.033)	Striatum: nM cGMP/μg protein ([1]; mouse, 10 mg/Kg P.O., 30 minutes after dosing, vehicle 0.062)	Cerebellum: nM cGMP/μg protein ([1]; mouse, 10 mg/Kg P.O., 30 minutes after dosing, vehicle 0.364)	cGMP in the cerebellum versus vehicle ([1]; mouse, acute 10 mg/Kg P.O.)	cGMP in the cortex versus vehicle ([1]; mouse, acute 10 mg/Kg P.O.)	cGMP in the hippocampus versus vehicle ([1]; mouse, acute 10 mg/Kg P.O.)	cGMP in mouse brain as compared to vehicle dosed animals ([2]; acute 3 mg/Kg P.O.)	cGMP in mouse brain as compared to vehicle dosed animals ([2]; acute 10 mg/Kg P.O.)	Potentiation in R6/2 slices compared to R6/2 control slices ([3]; 855 nM)	fEPSP amplitude (basal synaptic transmission) ([3]; 855 nM for 15 minutes, R6/2 hippocampal slices)	I/O characteristics [3, 4]	Paired-pulse properties [3, 4]	LTP: fEPSP increase at endpoint after HFS ([3]; 855 nM, R6/2 hippocampal slices, WT control 36±3%, R6/2 control 15±2%)
Fc1ccccc1Cn1nc(-c2nc(C(F)(F)F)n[nH]2)c2cccnc21 [Compound I-2]	0.124 nM cGMP/μg protein	0.072 nM cGMP/μg protein	0.104 nM cGMP/μg protein	0.681 nM cGMP/μg protein	significant increase	significant increase	significant increase	increases	increases					
FC(F)(F)c1n[nH]c(-c2nc(Cc3cncnc3)c3ccccn23)n1 [Compound I-5]										significantly increased	did not modify	significantly higher	significantly increased	40±6%
